The values that follow come from patent publication US20200131156A1, “ARYLSULFONYLPYROLECARBOXAMIDE DERIVATIVES AS Kv3 POTASSIUM CHANNEL ACTIVATORS” (H. Lundbeck A/S, priority 2018, published 2020).

A short description of series [1]: Unbound fraction in plasma (mouse PK table footnote). It is filed as in vitro ADME.
The target of series [2] is hKv7.2/7.3 (Homo sapiens, UniProt O43525+O43526). The series can be described thus: Off-target Kv7.2/7.3 activation, fluorescence-based ion flux assay (FDSS). The class given is cell-based. Conditions: up to 30 μM. Here is the method:
The activity of selected compound examples at three key ion channel off targets was measured, namely Nav1.1, Kv1.1/1.2 and Kv7.2/7.3.
Effects of selected examples on activation of the voltage gated heteromeric potassium channel Kv7.2/7.3 was tested in a fluorescence-based ion flux assay at concentrations up to 30 μM.

The nature of series [3]: Unbound fraction in brain (mouse PK table footnote). It is filed as in vitro ADME.
For series [4], the system named is fast-spiking interneurons (FSI). The series can be described thus: Hippocampal brain slice current clamp recording, FSI excitability (AP firing). The class given is cell-based, rat. The protocol: Male Sprague Dawley rats (18˜24 days old) from Shanghai Laboratory Animal Center (Shanghai, China) were used for brain slice experiments. They were housed in groups of five in controlled conditions (temperature of 23±3° C., humidity of 40-70%, and 12:12 light-dark cycle with lights on at 5:00 am) and free access to food and water. All procedures were conducted in agreement with the guideline of Institutional Animal Care and Use Committee at ChemPartner. Ethical approval was obtained by the The Danish Animal Experimentation Inspectorate (journal no. 2014 15 0201 00339).
Animals were decapitated by a guillotine and their brains quickly removed and placed in ice-cold modified artificial cerebral spinal fluid (ACSF) containing (in mM): 110 sucrose, 60 NaCl, 3 KCl, 5 glucose, 28 NaHCO3, 1.25 NaH2PO4, 0.5 CaCl2 and 7 MgCl2, aerated with 95% O2/5% CO2. The brains were block-trimmed and glued onto the stage of a vibratome (VT1200S, Leica Microsystems Inc., Bannockburn, Ill., USA). Parasagittal hippocampal slices (300 μm) were cut and incubated in the regular carbogenated ACSF containing (in mM): 119 NaCl, 2.5 KCl, 1.2 Na2HPO4, 25 NaHCO3, 2.5 CaCl2, 1.3 MgCl2, 10 glucose at 35° C. for the first 60 min and then transferred to room temperature prior to recordings.
In the hippocampal CA1 pyramidal cell layer, fast-spiking interneurons (FSI) or pyramidal (PYR) cells were visualized using differential interference contrast-infrared (DIC-IR)-assisted microscopy and whole-cell patch clamp recordings performed using an Axon Multiclamp 700B amplifier (Molecular Devices, Union City, Calif.). FSI were selected based on non-pyramidal shape and multipolar dendrites. Putative FSI were only accepted for experiments if they fulfilled the following electrophysiological criteria: short duration action potentials (APs <1 ms), large after hyperpolarizations, and, in response to sustained current injection, high frequency AP firing (>100 Hz) with limited spike frequency adaptation. Patch pipettes (4-5MΩ) were pulled from thick-walled borosilicate glass tubing (O.D.: 1.5 mm, I.D.: 0.75 mm; Sutter Instrument, Novato, Calif., USA).
Whole cell patch clamp recordings in current clamp mode were used to study neuronal excitability. AP firing was recorded in the presence of 50 μM APV, 10 μM DNQX and 10 μM Gabazine to block all synaptic transmission mediated by NMDA, AMPA and GABAA receptors. Patch pipettes were filled with an intracellular solution containing (in mM): 110 KMeSO4, 10 HEPES, 1 EGTA, 2 MgCl2, 4 Na2-ATP, 0.4 TRIS-GTP, 10 Tris2-Phosphocreatine, pH adjusted to 7.3 with KOH. The osmolarity was adjusted to 290 mOsm with sucrose. The holding potential was maintained continuously at −70 mV by manual DC injection. Series resistance (10-20 MΩ after “break-in”) was 90% compensated and monitored constantly during the entire experiment by “bridge”-balancing of the instantaneous voltage responses to a hyperpolarizing current pulse before each depolarizing stimulus delivery. A series of depolarizing current steps (800 ms-long) were applied every 3 min. Following at least 15 min of stable activity, Kv3 channel modulators were applied to the ACSF at increasing concentrations.

What is called fraction unbound is free concentration divided by total concentration. A low value points to little free substance. For orientation: EC50 means the concentration giving half of the maximal effect.

On to `Cc1cnc(CNC(=O)c2ccn(S(=O)(=O)c3ccc(F)cc3C)c2)cn1` [Compound 90, 1-(4-fluoro-2-methylbenzene-1-sulfonyl)-N-[(5-methylpyrazin-2-yl)methyl]-1H-pyrrole-3-carboxamide], for which the free fraction (fraction unbound) in series [1] and in series [3] was 0.1 each time. For the same molecule, the concentration for a half-maximal effect (EC50) in series [2] is above 30 µM. Besides, the “FSI excitability (number of APs)” value in series [4] (10 μM) is given as “decreased, reaching a level below baseline”; in series [4] (0.3 and 1 μM) it was “increase in FSI excitability”. Also, in series [4] (low concentrations (0.1 and 1 μM)), the FSI excitability entry is reported as “increases FSI excitability”.
`Cc1ccc(S(=O)(=O)n2ccc(C(=O)NCc3ncco3)c2)cc1` [Compound 86, 1-(4-methylbenzene-1-sulfonyl)-N-[(1,3-oxazol-2-yl)methyl]-1H-pyrrole-3-carboxamide]: the results for the fraction unbound in series [1] and in series [3] were 0.08 and 0.11, respectively. In series [2], this molecule yielded a concentration for a half-maximal effect (EC50) above 30 µM. Besides, the “FSI excitability (number of APs)” value is “slight reduction in excitability” in series [4] (10 μM); “increased excitability” in series [4] (0.3 and 1 μM).
